Reference: patent US10030027B2, “Soluble guanylate cyclase stimulators” (MERCK SHARP & DOHME CORP., priority 2015, dated 2018)
pEC50, pKi: −log10 of the molar value.

What was measured:
sGC α1/β1 heterodimer = sGC α1/β1 heterodimer (Homo sapiens (Human), UniProt Q02108+Q02153); assay: Cell-based sGC functional assay (cyclic GMP assay for sGC activator: CASA assay); set-up: % Activation: concentration or dose not given beside the values; conditions: CHO-K1/sGC cells; for Emax: CHO-K1, activity expressed as percentage of compound A (standard), read-out: % Activation; for pEC50: inflection point, 4P fit, read-out: IP; for % Activation: activity expressed as percentage of compound A (standard)
Method in brief: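 CHO-K1 cells stably expressing human sGC α1/β1 were pre-incubated 30 min at 25° C with or without 1 μM DETA-NO, then exposed to compound for 1 hr at 37° C with 0.5 mM IBMX and 2.5% DMSO final. Intracellular cGMP was measured by HTRF, expressed as % of reference sGC-HDA maximum; inflection point and maximum fold induction came from 4-parameter fits.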

[1] = target: human recombinant sGC enzyme (Homo sapiens (Human), UniProt Q02108+Q02153); assay: Size Exclusion Chromatography (SEC) competition binding assay using [3H] Ex-77B as the radioligand; conditions: [3H] Ex-77B radioligand, 24 hours at 37° C.
Method in brief: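 Recombinant human sGC binding measured by competition against tritiated Ex-77B radioligand, with non-specific binding defined by 1 μM unlabeled Ex-77B.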

Row | SMILES | Emax (sGC α1/β1 heterodimer) | pEC50 (sGC α1/β1 heterodimer) | pKi [1] | % Activation (sGC α1/β1 heterodimer)
1 | CC1(c2cn(C(C)(C)C(=O)O)nn2)C(=O)Nc2nc(-c3nn(CCC(F)(F)C(F)(F)F)c4cc(Cl)ccc34)nc(N)c21 (stereo not shown) [Example 30B, 2-(4-{4-amino-2-[6-chloro-1-(3,3,4,4,4-pentafluorobutyl)-1H-indazol-3-yl]-5-methyl-6-oxo-6,7-dihydro-5H-pyrrolo[2,3-d]pyrimidin-5-yl}-1H-1,2,3-triazol-1-yl)-2-methylpropanoic acid] | 93% | 6.75 | 9.25 | –
2 | CC(C)(Cc1coc(C2(C)C(=O)Nc3nc(-c4nn(CC5CCCCO5)c5ccccc45)nc(N)c32)n1)C(=O)O (single isomer, unassigned) [Example 230AA, 3-{2-[4-amino-5-methyl-6-oxo-2-{1-[tetrahydro-2H-pyran-2-ylmethyl]-1H-indazol-3-yl}-6,7-dihydro-5H-pyrrolo[2,3-d]pyrimidin-5-yl]-1,3-oxazol-4-yl}-2,2-dimethyl-propanoic acid] | – | 6.09 | 9.73 | –
3 | CC(C)(CCc1coc(C2(C)C(=O)Nc3nc(-c4nn(Cc5ncccc5F)c5cc(Cl)ccc45)nc(N)c32)n1)C(=O)O (stereo not shown) [Example 207B, 4-{2-[4-amino-2-{6-chloro-1-[(3-fluoropyridin-2-yl)methyl]-1H-indazol-3-yl}-5-methyl-6-oxo-6,7-dihydro-5H-pyrrolo[2,3-d]pyrimidin-5-yl]-1,3-oxazol-4-yl}-2,2-dimethyl-butanoic acid] | 100% | 5.75 | 10.02 | –
4 | CC(C)(Cc1coc(C2(C)C(=O)Nc3nc(-c4nn(CC5CCCCC5)c5cc(Cl)ccc45)nc(N)c32)n1)C(=O)O (stereo not shown) [Example 159A, 3-(2-{4-amino-2-[6-chloro-1-(cyclohexylmethyl)-1H-indazol-3-yl]-5-methyl-6-oxo-6,7-dihydro-5H-pyrrolo[2,3-d]pyrimidin-5-yl}-1,3-oxazol-4-yl)-2,2-dimethyl-propanoic acid] | 113% | 6.66 | 9.90 | –
5 | CC(C)(CCc1csc(C2(C)C(=O)Nc3nc(-c4nn(Cc5cccc(F)c5)c5cc(F)ccc45)nc(N)c32)n1)C(=O)O (stereo not shown) [Example 196A, 4-(2-{4-amino-2-[6-fluoro-1-(3-fluorobenzyl)-1H-indazol-3-yl]-5-methyl-6-oxo-6,7-dihydro-5H-pyrrolo[2,3-d]pyrimidin-5-yl}-1,3-thiazol-4-yl)-2,2-dimethyl-butanoic acid] | 90.3% | 7.27 | 9.33 | –
6 | CC1CCC(Cn2nc(-c3nc(N)c4c(n3)NC(=O)C4(C)c3nc(CC(C)(C)C(=O)O)co3)c3ccc(Cl)cc32)CC1 (single isomer, unassigned) [Example 132AB, 3-{2-[4-amino-2-{6-chloro-1-[4-methylcyclohexylmethyl]-1H-indazol-3-yl}-5-methyl-6-oxo-6,7-dihydro-5H-pyrrolo[2,3-d]pyrimidin-5-yl]-1,3-oxazol-4-yl}-2,2-dimethylpropanoic acid] | – | 7.05 | 10.13 | 109.2%
7 | CC(C)(Cc1csc([C@]2(C)C(=O)Nc3nc(-c4nn(Cc5ccccc5F)c5cc(Cl)ccc45)nc(N)c32)n1)c1nn[nH]n1 [Example 238A, (S)-4-amino-2-[6-chloro-1-(2-fluorobenzyl)-1H-indazol-3-yl]-5-methyl-5-{4-[2-methyl-2-(2H-tetrazol-5-yl)propyl]-1,3-thiazol-2-yl}-5,7-dihydro-6H-pyrrolo[2,3-d] pyrimidin-6-one] | 99.5% | 6.22 | 10.02 | –
8 | CC1CCC(Cn2nc(-c3nc(N)c4c(n3)NC(=O)C4(C)c3nc(CC(C)(C)C(=O)O)co3)c3cccnc32)CC1 (single isomer, unassigned) [Example 126AA, 3-{2-[4-amino-5-methyl-2-{1-[4-methylcyclohexylmethyl]-1H-pyrazolo[3,4-b]pyridin-3-yl}-6-oxo-6,7-dihydro-5H-pyrrolo[2,3-d]pyrimidin-5-yl]-1,3-oxazol-4-yl}-2,2-dimethylpropanoic acid] | – | 7.13 | 10.00 | 89.0%
9 | CC1CCC(Cn2nc(-c3nc(N)c4c(n3)NC(=O)[C@@]4(C)c3nc(CC(C)(C)C(=O)O)cs3)c3ccc(F)cc32)CC1 (single isomer, unassigned) [Example 136AB] | – | 7.64 | 9.66 | 71.4%
10 | CC1(c2nc(CCC(F)(F)C(=O)O)co2)C(=O)Nc2nc(-c3nn(Cc4cccc(F)c4)c4cc(F)ccc34)nc(N)c21 (stereo not shown) [Example 135A, 4-(2-{4-amino-2-[6-fluoro-1-(3-fluorobenzyl)-1H-indazol-3-yl]-5-methyl-6-oxo-6,7-dihydro-5H-pyrrolo[2,3-d]pyrimidin-5-yl}-1,3-oxazol-4-yl)-2,2-difluorobutanoic acid] | 92.9% | 6.60 | 9.56 | –
11 | Cc1cccc(Cn2nc(-c3nc(N)c4c(n3)NC(=O)[C@@]4(C)c3ccc(CCC(=O)O)cc3)c3ccccc32)c1 [Example 225B, (S)-3-(4-{4-amino-5-methyl-2-[1-(3-methylbenzyl)-1H-indazol-3-yl]-6-oxo-6,7-dihydro-5H-pyrrolo[2,3-d]pyrimidin-5-yl}phenyl)propanoic acid] | 140% | 6.34 | 9.47 | –
12 | CC(C)(Cc1csc([C@]2(C)C(=O)Nc3nc(-c4nn(Cc5c(F)ccc(F)c5F)c5cc(Cl)ccc45)nc(N)c32)n1)C(=O)O [Example 190A, (S)-3-(2-{4-amino-2-[6-chloro-1-(2,3,6-trifluoro-benzyl)-1H-indazol-3-yl]-5-methyl-6-oxo-6,7-dihydro-5H-pyrrolo[2,3-d]pyrimidin-5-yl}-1,3-thiazol-4-yl)-2,2-dimethyl-propanoic acid] | 120% | 7.31 | 10.51 | –
13 | CC(C)(Cc1csc([C@]2(C)C(=O)Nc3nc(-c4nn(CC5CCCCO5)c5ncccc45)nc(N)c32)n1)C(=O)O (single isomer, unassigned) [Example 123AB] | – | 5.71 | 9.06 | 95.8%
14 | Cc1ccc2c(-c3nc(N)c4c(n3)NC(=O)[C@@]4(C)c3ccc(CCC(=O)O)cc3)nn(CCCC(F)(F)F)c2n1 [Example 20B, (S)-3-(4-{4-amino-5-methyl-2-[6-methyl-1-(4,4,4-trifluorobutyl)-1H-pyrazolo[3,4-b]pyridin-3-yl]-6-oxo-6,7-dihydro-5H-pyrrolo[2,3-d]pyrimidin-5-yl}phenyl)propanoic acid] | 88% | 5.66 | 8.35 | –
15 | CC1(c2nc(-c3ccc(C(=O)O)cc3)co2)C(=O)Nc2nc(-c3nn(Cc4ccccc4F)c4ncccc34)nc(N)c21 (stereo not shown) [Example 146A, 4-(2-{4-amino-2-[1-(2-fluorobenzyl)-1H-pyrazolo[3,4-b]pyridin-3-yl]-5-methyl-6-oxo-6,7-dihydro-5H-pyrrolo [2,3-d]pyrimidin-5-yl}-1,3-oxazol-4-yl)benzoic acid] | 82.1% | 7.03 | 10.21 | –
16 | CC1(c2nc(-c3ccc(C(=O)O)cc3)cs2)C(=O)Nc2nc(-c3nn(Cc4ccccc4F)c4cc(Cl)ccc34)nc(N)c21 (stereo not shown) [Example 165A, 4-(2-{4-amino-2-[6-chloro-1-(2-fluorobenzyl)-1H-indazol-3-yl]-5-methyl-6-oxo-6,7-dihydro-5H-pyrrolo[2,3-d]pyrimidin-5-yl}-1,3-thiazol-4-yl) benzoic acid] | 110% | 7.32 | 10.09 | –
17 | CC(C)(Cc1csc(C2(C)C(=O)Nc3nc(-c4nn(CCC(F)(F)F)c5ncc(F)cc45)nc(N)c32)n1)C(=O)O (stereo not shown) [Example 85A, 3-(2-{4-amino-2-[5-fluoro-1-(3,3,3-trifluoropropyl)-1H-pyrazolo[3,4-b]pyridin-3-yl]-5-methyl-6-oxo-6,7-dihydro-5H-pyrrolo[2,3-d]pyrimidin-5-yl}-1,3-thiazol-4-yl)-2,2-dimethylpropanoic acid] | 130% | 6.15 | 8.82 | –
18 | CC(C)(Cc1csc([C@]2(C)C(=O)Nc3nc(-c4nn(Cc5ccccc5F)c5ccccc45)nc(N)c32)n1)c1nn[nH]n1 (single isomer, unassigned) [Example 236A] | 110% | 6.32 | 9.80 | –
19 | CC1(c2ccc(CCc3nn[nH]n3)cn2)C(=O)Nc2nc(-c3nn(Cc4ccccc4F)c4cc(Cl)ccc34)nc(N)c21 (single isomer, unassigned) [Example 247A, 5-{5-[2-(2H-tetrazol-5-yl)ethyl]pyridin-2-yl}-4-amino-2-[6-chloro-1-(2-fluorobenzyl)-1H-indazol-3-yl]-5-methyl-5,7-dihydro-6H-pyrrolo[2,3-d] pyrimidin-6-one] | – | 5.40 | 9.62 | –
20 | C[C@@]1(c2ccc(CCC(=O)O)cc2)C(=O)Nc2nc(-c3nn(Cc4ccccc4F)c4cc(Cl)c(O)cc34)nc(N)c21 [Example 110B, (S)-3-(4-{4-Amino-2-[6-chloro-1-(2-fluorobenzyl)-5-hydroxy-1H-indazol-3-yl]-5-methyl-6-oxo-6,7-dihydro-5H-pyrrolo[2,3-d]pyrimidin-5-yl}phenyl)propanoic acid] | 78% | 5.95 | 9.44 | –
21 | CC1(c2cccc(C(=O)O)n2)C(=O)Nc2nc(-c3nn(Cc4ccccc4F)c4cc(Cl)ccc34)nc(N)c21 (stereo not shown) [Example 255A, 6-{4-Amino-2-[6-chloro-1-(2-fluorobenzyl)-1H-indazol-3-yl]-5-methyl-6-oxo-6,7-dihydro-5H-pyrrolo[2,3-d]pyrimidin-5-yl}picolinic acid] | 108% | 5.83 | 10.14 | –
